Measured values as given in ChEMBL document CHEMBL2163275, “The lipogenesis pathway as a cancer target” (J Med Chem, 2011).

Key:
ATP-citrate synthase [1] = target: T1, ATP-citrate synthase (Rattus norvegicus, UniProt P16638); assay: Inhibition of rat liver ACLY by fluorimetric analysis
T1 sequence (P16638 whole entry): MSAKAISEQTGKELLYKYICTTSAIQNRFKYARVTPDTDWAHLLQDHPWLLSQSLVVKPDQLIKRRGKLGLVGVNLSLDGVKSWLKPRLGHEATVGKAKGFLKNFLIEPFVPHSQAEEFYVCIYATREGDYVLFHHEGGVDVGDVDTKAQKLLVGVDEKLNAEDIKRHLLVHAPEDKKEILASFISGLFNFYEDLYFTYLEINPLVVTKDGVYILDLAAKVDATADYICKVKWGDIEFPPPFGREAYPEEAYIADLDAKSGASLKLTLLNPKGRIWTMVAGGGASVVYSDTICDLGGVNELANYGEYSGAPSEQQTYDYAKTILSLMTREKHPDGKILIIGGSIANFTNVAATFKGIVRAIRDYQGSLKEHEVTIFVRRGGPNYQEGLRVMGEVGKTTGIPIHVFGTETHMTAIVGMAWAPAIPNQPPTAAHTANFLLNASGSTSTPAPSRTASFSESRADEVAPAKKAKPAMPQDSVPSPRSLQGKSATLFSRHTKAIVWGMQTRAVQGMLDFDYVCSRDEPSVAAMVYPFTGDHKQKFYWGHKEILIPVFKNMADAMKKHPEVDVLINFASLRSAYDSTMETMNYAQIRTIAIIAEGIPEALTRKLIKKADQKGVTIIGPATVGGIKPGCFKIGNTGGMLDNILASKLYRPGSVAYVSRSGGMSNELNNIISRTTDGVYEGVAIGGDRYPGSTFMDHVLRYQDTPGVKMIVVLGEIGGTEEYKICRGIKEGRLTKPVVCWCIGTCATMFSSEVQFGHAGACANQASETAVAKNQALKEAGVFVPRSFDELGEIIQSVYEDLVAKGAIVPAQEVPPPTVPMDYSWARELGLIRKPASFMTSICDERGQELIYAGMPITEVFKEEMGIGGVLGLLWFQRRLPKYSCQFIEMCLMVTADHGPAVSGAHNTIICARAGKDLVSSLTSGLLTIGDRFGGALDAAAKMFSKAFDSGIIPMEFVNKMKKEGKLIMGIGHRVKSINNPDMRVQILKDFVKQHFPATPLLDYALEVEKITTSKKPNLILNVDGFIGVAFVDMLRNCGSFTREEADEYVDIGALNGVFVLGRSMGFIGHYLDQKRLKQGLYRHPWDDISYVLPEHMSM

ATP-citrate synthase [2] = target: T1, ATP-citrate synthase
[3] = Inhibition of rat liver ACC
[4] = Competitive inhibition of Escherichia coli ACC carboxyltransferase activity using malonyl coA as substrate
Escherichia coli = assay: Ratio of biotin Ki to compound Ki for Escherichia coli ACC
Fatty acid synthase [5] = target: T2, Fatty acid synthase (Homo sapiens, UniProt P49327); assay: Antagonist activity at human recombinant FASN thioesterase domain by fluorogenic assay; assay type: functional
Target sequence in this assay (P49327 whole entry, the tested form may be a part): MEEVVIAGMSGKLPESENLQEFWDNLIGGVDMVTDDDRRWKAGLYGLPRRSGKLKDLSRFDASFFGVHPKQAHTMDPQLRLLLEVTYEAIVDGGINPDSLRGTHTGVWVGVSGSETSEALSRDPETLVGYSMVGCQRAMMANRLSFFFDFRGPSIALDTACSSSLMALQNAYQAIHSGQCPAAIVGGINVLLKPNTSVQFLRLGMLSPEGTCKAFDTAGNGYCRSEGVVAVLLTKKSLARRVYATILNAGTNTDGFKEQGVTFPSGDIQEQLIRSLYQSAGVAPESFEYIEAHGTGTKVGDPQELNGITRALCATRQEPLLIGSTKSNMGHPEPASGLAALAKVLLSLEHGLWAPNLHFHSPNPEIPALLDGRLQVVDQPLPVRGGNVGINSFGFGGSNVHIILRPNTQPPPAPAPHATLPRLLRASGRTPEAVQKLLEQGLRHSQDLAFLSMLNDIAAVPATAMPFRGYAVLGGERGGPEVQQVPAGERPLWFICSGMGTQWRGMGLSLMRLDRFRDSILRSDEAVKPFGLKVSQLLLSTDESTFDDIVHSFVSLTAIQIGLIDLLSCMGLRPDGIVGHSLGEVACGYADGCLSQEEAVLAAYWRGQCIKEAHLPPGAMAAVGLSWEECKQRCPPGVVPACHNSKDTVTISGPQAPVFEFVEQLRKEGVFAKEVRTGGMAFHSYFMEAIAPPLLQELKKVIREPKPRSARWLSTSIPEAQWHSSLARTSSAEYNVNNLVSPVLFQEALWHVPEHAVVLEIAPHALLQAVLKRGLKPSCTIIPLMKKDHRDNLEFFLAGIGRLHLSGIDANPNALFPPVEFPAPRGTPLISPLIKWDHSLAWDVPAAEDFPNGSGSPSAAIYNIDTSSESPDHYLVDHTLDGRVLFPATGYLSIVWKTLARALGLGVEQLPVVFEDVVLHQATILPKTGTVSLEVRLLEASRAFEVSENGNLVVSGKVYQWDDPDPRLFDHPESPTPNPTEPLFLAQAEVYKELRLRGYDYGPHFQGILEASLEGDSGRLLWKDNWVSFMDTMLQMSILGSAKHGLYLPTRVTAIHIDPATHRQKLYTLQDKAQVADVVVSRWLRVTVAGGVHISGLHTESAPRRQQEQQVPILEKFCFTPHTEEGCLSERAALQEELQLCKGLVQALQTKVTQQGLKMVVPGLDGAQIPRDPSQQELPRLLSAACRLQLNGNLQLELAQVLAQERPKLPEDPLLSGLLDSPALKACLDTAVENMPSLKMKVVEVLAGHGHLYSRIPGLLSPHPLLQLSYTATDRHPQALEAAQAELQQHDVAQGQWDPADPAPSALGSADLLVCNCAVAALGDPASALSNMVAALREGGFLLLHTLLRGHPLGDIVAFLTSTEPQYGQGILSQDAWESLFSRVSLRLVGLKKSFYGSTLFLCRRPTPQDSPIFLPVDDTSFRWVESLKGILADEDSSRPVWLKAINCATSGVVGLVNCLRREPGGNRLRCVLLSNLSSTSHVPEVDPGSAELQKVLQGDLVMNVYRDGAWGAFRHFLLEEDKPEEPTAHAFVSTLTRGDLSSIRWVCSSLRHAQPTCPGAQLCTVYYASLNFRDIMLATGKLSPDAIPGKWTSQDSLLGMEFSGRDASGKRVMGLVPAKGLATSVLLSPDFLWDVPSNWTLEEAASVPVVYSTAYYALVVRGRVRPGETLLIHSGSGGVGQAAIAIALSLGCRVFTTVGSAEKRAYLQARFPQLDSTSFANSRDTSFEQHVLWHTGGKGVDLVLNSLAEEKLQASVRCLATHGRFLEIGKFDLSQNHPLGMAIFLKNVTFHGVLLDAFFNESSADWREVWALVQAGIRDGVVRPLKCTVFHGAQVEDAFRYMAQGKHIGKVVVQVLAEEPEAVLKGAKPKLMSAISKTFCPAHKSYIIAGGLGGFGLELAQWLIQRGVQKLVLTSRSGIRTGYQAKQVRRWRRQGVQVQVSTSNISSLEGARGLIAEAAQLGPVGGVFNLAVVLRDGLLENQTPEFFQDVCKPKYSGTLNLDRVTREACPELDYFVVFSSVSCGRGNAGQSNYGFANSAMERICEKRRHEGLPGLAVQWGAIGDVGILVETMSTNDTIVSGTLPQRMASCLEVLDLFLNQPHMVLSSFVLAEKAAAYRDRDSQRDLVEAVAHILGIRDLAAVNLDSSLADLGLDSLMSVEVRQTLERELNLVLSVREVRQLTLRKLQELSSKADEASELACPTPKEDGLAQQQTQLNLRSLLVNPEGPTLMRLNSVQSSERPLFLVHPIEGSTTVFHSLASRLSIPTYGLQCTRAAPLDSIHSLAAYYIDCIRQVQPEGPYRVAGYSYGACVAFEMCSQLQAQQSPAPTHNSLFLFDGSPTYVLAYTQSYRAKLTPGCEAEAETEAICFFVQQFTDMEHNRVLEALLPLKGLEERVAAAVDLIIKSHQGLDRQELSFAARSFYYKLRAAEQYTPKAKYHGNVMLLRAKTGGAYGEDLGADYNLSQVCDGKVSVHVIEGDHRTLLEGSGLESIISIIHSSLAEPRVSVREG

MDA-MB-435 [6] = assay: Cytotoxicity against human MDA-MB-435 cells; assay type: functional, cell-based
MDA-MB-435 [7] = assay: Selectivity ratio of IC50 for human MCF10A to IC50 for human MDA-MB-435 cells
[8] = Inhibition of rat liver ACC using acetyl coA as substrate and [14C]NaHCO3 incubated for 30 mins prior to substrate addition by liquid scintillation counting
Fatty acid synthase [9] = target: T2, Fatty acid synthase; assay: Inhibition of FASN in human HepG2 cells; assay type: cell-based
Target sequence in this assay (P49327 whole entry, the tested form may be a part): as above

Fatty acid synthase [10] = target: T2, Fatty acid synthase; settings: SK-BR-3, 22.4 uM
Target sequence in this assay (P49327 whole entry, looked up, the tested form may be a part): as the sequence (P49327 whole entry, the tested form may be a part) above
Description: Inhibition of FASN in human SKBR3 cells at 22.4 uM

Fatty acid synthase [11] = target: T2, Fatty acid synthase; settings: SK-BR-3, 179 uM
Target sequence in this assay (P49327 whole entry, looked up, the tested form may be a part): as the sequence (P49327 whole entry, the tested form may be a part) above
Description: Inhibition of FASN in human SKBR3 cells at 179 uM

Fatty acid synthase [12] = target: T2, Fatty acid synthase; assay: Inhibition of FASN in human SKBR3 cells at 21 uM after 3 mins by spectrophotometric analysis relative to control; assay type: cell-based; settings: SK-BR-3
Target sequence in this assay (P49327 whole entry, looked up, the tested form may be a part): as the sequence (P49327 whole entry, the tested form may be a part) above

Fatty acid synthase [13] = target: T2, Fatty acid synthase; assay: Inhibition of FASN in human SKBR3 cells at 29 uM after 3 mins by spectrophotometric analysis relative to control; assay type: cell-based; settings: SK-BR-3
Target sequence in this assay (P49327 whole entry, looked up, the tested form may be a part): as the sequence (P49327 whole entry, the tested form may be a part) above

ATP-citrate synthase [14] = target: T3, ATP-citrate synthase (Homo sapiens, UniProt P53396); assay: Inhibition of human recombinant ACLY
T3 sequence (P53396 whole entry): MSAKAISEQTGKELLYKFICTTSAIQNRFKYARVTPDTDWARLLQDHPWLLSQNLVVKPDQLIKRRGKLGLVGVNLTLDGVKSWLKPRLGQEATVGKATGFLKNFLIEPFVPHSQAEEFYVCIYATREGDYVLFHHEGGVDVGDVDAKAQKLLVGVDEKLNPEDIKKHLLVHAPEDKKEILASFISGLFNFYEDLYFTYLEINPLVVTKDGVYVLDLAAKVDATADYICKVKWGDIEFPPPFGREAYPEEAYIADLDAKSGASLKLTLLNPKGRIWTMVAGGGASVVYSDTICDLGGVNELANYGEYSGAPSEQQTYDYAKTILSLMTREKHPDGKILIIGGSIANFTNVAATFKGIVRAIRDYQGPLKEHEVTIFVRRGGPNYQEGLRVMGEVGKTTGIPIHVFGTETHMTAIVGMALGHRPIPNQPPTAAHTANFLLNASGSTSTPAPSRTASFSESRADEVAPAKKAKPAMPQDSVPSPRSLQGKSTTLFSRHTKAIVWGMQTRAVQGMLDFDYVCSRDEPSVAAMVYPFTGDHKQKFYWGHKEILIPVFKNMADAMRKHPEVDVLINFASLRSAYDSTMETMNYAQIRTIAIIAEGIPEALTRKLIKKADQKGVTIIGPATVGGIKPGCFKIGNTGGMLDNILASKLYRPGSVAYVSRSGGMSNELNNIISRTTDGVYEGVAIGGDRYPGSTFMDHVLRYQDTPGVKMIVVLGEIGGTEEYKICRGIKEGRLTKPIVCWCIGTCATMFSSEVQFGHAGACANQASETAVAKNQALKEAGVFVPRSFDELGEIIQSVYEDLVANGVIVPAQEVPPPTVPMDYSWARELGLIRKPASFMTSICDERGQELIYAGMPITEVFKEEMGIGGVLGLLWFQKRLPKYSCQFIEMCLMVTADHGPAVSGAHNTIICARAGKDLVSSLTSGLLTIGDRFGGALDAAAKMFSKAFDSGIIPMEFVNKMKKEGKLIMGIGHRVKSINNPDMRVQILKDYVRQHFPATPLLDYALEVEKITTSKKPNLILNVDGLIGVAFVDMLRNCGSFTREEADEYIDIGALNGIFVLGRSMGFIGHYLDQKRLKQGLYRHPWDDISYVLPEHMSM

Fatty acid synthase [15] = target: T2, Fatty acid synthase; assay: Inhibition of human recombinant FASN thioesterase domain
Target sequence in this assay (P49327 whole entry, the tested form may be a part): as the sequence (P49327 whole entry, the tested form may be a part) above

Fatty acid synthase [16] = target: T2, Fatty acid synthase; assay: Inhibition of FASN in human A375 cells; assay type: cell-based, A-375
Target sequence in this assay (P49327 whole entry, the tested form may be a part): as the sequence (P49327 whole entry, the tested form may be a part) above

Fatty acid synthase [17] = target: Fatty acid synthase (Gallus gallus, UniProt P12276); assay: Inhibition of chicken liver FASN ketoreductase activity

## O=C(O)C[C@@](O)(C(=O)O)[C@H](O)C(=O)O
ATP-citrate synthase [1]
  Ki: 8 µM

## O=C(O)C[C@@]1(C(=O)O)O[C@H]1C(=O)O
ATP-citrate synthase [2]
  Ki: 18 µM

## O=C1C[C@@](O)(C(=O)O)[C@@H](C(=O)O)O1
ATP-citrate synthase [1]
  Ki: 50 µM

## Cc1cc(O)c2c(c1)Cc1cc(O)c(Cl)c(O)c1C2=O
ATP-citrate synthase [2]
  IC50: 0.283 µM

## CC(C)(C)c1ccc(N2C[C@@H](COc3ccc(C(=O)SCCNC(=O)CCNC(=O)[C@H](O)C(C)(C)COP(=O)(O)OP(=O)(O)OC[C@H]4O[C@@H](n5cnc6c(N)ncnc65)[C@H](O)[C@@H]4OP(=O)(O)O)cc3)CC2=O)cc1
[3]
  Ki: 69.2 µM

## CC(C)(COP(=O)(O)OP(=O)(O)OC[C@H]1O[C@@H](n2cnc3c(N)ncnc32)[C@H](O)[C@@H]1OP(=O)(O)O)[C@H](O)C(=O)NCCC(=O)NCCSC(=O)CC(=O)N1C(=O)N[C@@H]2[C@H](CCCCC(=O)OCc3ccccc3)SC[C@@H]21
[4]
  Ki: 23 µM
Escherichia coli
  Ratio Ki: 350

## Cc1c(-c2cc3ccccc3o2)oc(=O)c(C)c1O
[3]
  Ki: 3.3 µM

## Cc1cc(C)cc(N2C(=O)NC(=O)/C(=C\c3ccc(-c4ccccc4)o3)C2=O)c1
Fatty acid synthase [5]
  Ki: 0.38 µM
MDA-MB-435 [6]
  IC50: 3.47 µM
MDA-MB-435 [7]
  Ratio IC50: 2

## CC(C)(CCCCCC(O)CCCCCC(C)(C)C(=O)SCCNC(=O)CCNC(=O)[C@H](O)C(C)(C)COP(=O)(O)OP(=O)(O)OC[C@H]1O[C@@H](n2cnc3c(N)ncnc32)[C@H](O)[C@@H]1OP(=O)(O)O)C(=O)O (stereo partly specified)
[8]
  IC50: 29 µM

## C=C/C(C)=C/[C@]1(C)SC(=O)C(C)=C1O
Fatty acid synthase [9]
  IC50: 208 µM

## C=C/C(C)=C/[C@]1(C)SC(=O)C=C1O
Fatty acid synthase [9]
  IC50: 96.8 µM

## CCCCC/C=C\C/C=C\C/C=C\CCCCC(=O)O
Fatty acid synthase [10]
  inhibition: 41%
Fatty acid synthase [11]
  inhibition: 78%

## O=C(Oc1cc(OC(=O)c2cc(O)c(O)c(O)c2)c2ccccc2c1)c1cc(O)c(O)c(O)c1
Fatty acid synthase [12]
  inhibition: 90%

## O=C(Oc1ccc(OC(=O)c2cc(O)c(O)c(O)c2)c2ccccc12)c1cc(O)c(O)c(O)c1
Fatty acid synthase [13]
  inhibition: 69%

## O=C(O)C[C@](O)(C[C@@H](O)CCCCCC1c2ccccc2-c2cc(Cl)ccc21)C(=O)O (mixture of isomers)
ATP-citrate synthase [14]
  Ki: 0.22 µM

## O=C(O)[C@H](O)[C@](O)(C[C@@H](O)CCCCCCc1ccc(Cl)cc1Cl)C(=O)O (racemic)
ATP-citrate synthase [14]
  Ki: 0.62 µM

## Cc1cn(-c2cc(Cl)ccc2CCCCCC[C@H](O)C[C@@](O)(CC(=O)O)C(=O)O)cc1C (racemic)
ATP-citrate synthase [14]
  Ki: 0.3 µM

## O=C(O)C[C@](O)(C[C@@H](O)CCCCCn1c(-c2ccccc2)cc2cc(Cl)ccc21)C(=O)O (racemic)
ATP-citrate synthase [14]
  Ki: 0.37 µM

## O=C(O)C[C@](O)(C[C@@H](O)CCCCCn1c2ccccc2c2cc(Cl)ccc21)C(=O)O (racemic)
ATP-citrate synthase [14]
  Ki: 0.71 µM

## C=C1C(=O)O[C@H](CCCCCCCC)[C@H]1C(=O)O (relative stereo)
Fatty acid synthase [15]
  IC50: 59 µM
Fatty acid synthase [16]
  IC50: 32.4 µM
Fatty acid synthase [17]
  IC50: 80 µM
